Measurements from PubChem BioAssay AID256 (DTP/NCI, 2004).
Values joined by “and” are separate entries in the source; they are usually repeats but may differ in a detail not shown here. Equal values may be shown once. Toxic doses and inconclusive results are not listed. How the source made its calls: active means survival T/C of 150% or more; inactive means T/C below 125% in these data. Residues, ends and D or L forms follow the SMILES beside them. *: point of attachment. Cbz = O=C(OCc1ccccc1)*; Bn = c1ccc(C*)cc1

Tested on: CD2F1 mice, L1210 leukemia ip, survival T/C
Assay: NCI In Vivo Anticancer Drug Screen. Data for tumor model L1210 Leukemia (intraperitoneal) in CD2F1 (CDF1) mice
Conditions: higher = longer survival
Summary of the method: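 Compound-dosed mice with transplantable tumor versus matched vehicle controls; endpoint ratio T/C reported.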

[1] = endpoint: mean survival time, dose: 100.0 mg/kg/injection, schedule: Q01DX001 (ip), vehicle: saline with Tween-80
[2] = endpoint: mean survival time, dose: 100.0 mg/kg/injection, schedule: Q01DX009 (ip), vehicle: saline with Tween-80
[3] = endpoint: mean survival time, dose: 200.0 mg/kg/injection, schedule: Q01DX001 (ip), vehicle: saline with Tween-80
[4] = endpoint: mean survival time, dose: 100.0 mg/kg/injection, schedule: Q04DX003 (ip), vehicle: saline with Tween-80
[5] = endpoint: mean survival time, dose: 200.0 mg/kg/injection, schedule: Q04DX003 (ip), vehicle: saline with Tween-80
[6] = endpoint: mean survival time, dose: 400.0 mg/kg/injection, schedule: Q04DX003 (ip), vehicle: saline with Tween-80
[7] = endpoint: mean survival time, dose: 25.0 mg/kg/injection, schedule: Q01DX009 (ip), vehicle: saline with Tween-80
[8] = endpoint: mean survival time, dose: 50.0 mg/kg/injection, schedule: Q01DX009 (ip), vehicle: saline with Tween-80
[9] = endpoint: mean survival time, dose: 100.0 mg/kg/injection, schedule: Q04DX002 (ip), vehicle: saline with Tween-80
[10] = endpoint: mean survival time, dose: 200.0 mg/kg/injection, schedule: Q04DX002 (ip), vehicle: saline with Tween-80
[11] = endpoint: mean survival time, dose: 400.0 mg/kg/injection, schedule: Q04DX002 (ip), vehicle: saline with Tween-80
[12] = endpoint: mean survival time, dose: 200.0 mg/kg/injection, schedule: Q01DX009 (ip), vehicle: saline with Tween-80
[13] = endpoint: mean survival time, dose: 400.0 mg/kg/injection, schedule: Q01DX009 (ip), vehicle: saline with Tween-80

Measured: T/C

CO[C@H]1[C@H](O)[C@H](O[C@H]2CC[C@@]3(C)[C@H](CC[C@@H]4[C@@H]3CC[C@]3(C)[C@@H](C5=CC(=O)OC5)CC[C@]43O)C2)O[C@@H](C)[C@@H]1O
inactive: endpoint: mean survival time, dose: 0.5 mg/kg/injection, schedule: Q01DX001 (ip), vehicle: saline 105 % of control | endpoint: mean survival time, dose: 1.0 mg/kg/injection, schedule: Q01DX001 (ip), vehicle: saline 105 % of control | endpoint: mean survival time, dose: 2.0 mg/kg/injection, schedule: Q01DX001 (ip), vehicle: saline 108 % of control | endpoint: mean survival time, dose: 4.0 mg/kg/injection, schedule: Q01DX001 (ip), vehicle: saline 109 % of control

COC(=O)C(Cc1ccccc1)NC(=O)C(CSCc1ccccc1)NC(=O)OCc1ccccc1 (configuration not stated) (Cbz-Cys(Bn)-Phe-OMe; configuration not given here)
inactive: [1] 93 % of control | [2] 91 % of control | [3] 95 % of control | endpoint: mean survival time, dose: 400.0 mg/kg/injection, schedule: Q01DX001 (ip), vehicle: saline with Tween-80 89 % of control

CCCCCCCCCCCC[Si](CCCCCCCCCCCC)(c1ccccc1)c1ccccc1
inactive: [4] 103 % of control | [5] 93 % of control | [6] 93 % of control

CC1C(=O)OC(C)(C)C1(C)C (configuration not stated)
inactive: [7] 98 % of control | [8] 98 % of control | [4] 104 % of control

NCCCNC/C=C/CNCCCN
inactive: endpoint: mean survival time, dose: 37.5 mg/kg/injection, schedule: Q01DX009 (ip), vehicle: saline 98 % of control | endpoint: mean survival time, dose: 75.0 mg/kg/injection, schedule: Q01DX009 (ip), vehicle: saline 101 % of control | endpoint: mean survival time, dose: 150.0 mg/kg/injection, schedule: Q01DX009 (ip), vehicle: saline 101 % of control

COc1cc2c(cc1OC)C(CCNC(=O)CCCO)NCC2 (configuration not stated)
inactive: endpoint: mean survival time, dose: 100.0 mg/kg/injection, schedule: Q01DX001 (ip), vehicle: saline sonified 97 % of control | endpoint: mean survival time, dose: 100.0 mg/kg/injection, schedule: Q01DX009 (ip), vehicle: saline sonified 98 % of control | endpoint: mean survival time, dose: 200.0 mg/kg/injection, schedule: Q01DX001 (ip), vehicle: saline sonified 100 % of control | endpoint: mean survival time, dose: 200.0 mg/kg/injection, schedule: Q01DX009 (ip), vehicle: saline sonified 95 % of control | endpoint: mean survival time, dose: 400.0 mg/kg/injection, schedule: Q01DX001 (ip), vehicle: saline sonified 100 % of control | endpoint: mean survival time, dose: 400.0 mg/kg/injection, schedule: Q01DX009 (ip), vehicle: saline sonified 91 % of control

CCCCCOc1ccc(Cl)cc1Cl
inactive: [9] 86 % of control | [10] 101 % of control | [11] 109 % of control

CNC1C(CO)OC(n2cnc3c(N)ncnc32)C1O (configuration not stated)
inactive: endpoint: mean survival time, dose: 75.0 mg/kg/injection, schedule: Q01DX001 (ip), vehicle: saline 106 % of control | endpoint: mean survival time, dose: 150.0 mg/kg/injection, schedule: Q01DX001 (ip), vehicle: saline 103 % of control | endpoint: mean survival time, dose: 300.0 mg/kg/injection, schedule: Q01DX001 (ip), vehicle: saline 109 % of control

N#CC(c1cccc([N+](=O)[O-])c1)C(CC(=O)c1ccccc1)c1ccccc1 (configuration not stated)
inactive: [9] 95 % of control | [10] 95 % of control | [11] 102 % of control

O=C1CCCC2C1CCCC21OCCO1 (configuration not stated)
inactive: endpoint: mean survival time, dose: 25.0 mg/kg/injection, schedule: Q04DX003 (ip), vehicle: saline 93 % of control | endpoint: mean survival time, dose: 50.0 mg/kg/injection, schedule: Q04DX003 (ip), vehicle: saline 100 % of control | endpoint: mean survival time, dose: 100.0 mg/kg/injection, schedule: Q04DX003 (ip), vehicle: saline 102 % of control

NC(c1ccccc1)C(N)c1ccccc1 (configuration not stated)
inactive: endpoint: mean survival time, dose: 25.0 mg/kg/injection, schedule: Q04DX003 (ip), vehicle: other 102 % of control | endpoint: mean survival time, dose: 50.0 mg/kg/injection, schedule: Q04DX003 (ip), vehicle: other 94 % of control | endpoint: mean survival time, dose: 100.0 mg/kg/injection, schedule: Q04DX003 (ip), vehicle: other 88 % of control

Cc1ccc(C(=O)C(F)F)cc1
inactive: endpoint: mean survival time, dose: 50.0 mg/kg/injection, schedule: Q01DX001 (ip), vehicle: saline with Tween-80 100 % of control | [1] 101 % of control | [3] 101 % of control

Nc1nc2c(nc(N3CCCC3)n2C2OC(CO)C(O)C2O)c(=O)[nH]1 (configuration not stated)
inactive: endpoint: mean survival time, dose: 12.5 mg/kg/injection, schedule: Q01DX005 (ip), vehicle: distilled water + Tween-80 100 % of control | endpoint: mean survival time, dose: 25.0 mg/kg/injection, schedule: Q01DX005 (ip), vehicle: distilled water + Tween-80 102 % of control | endpoint: mean survival time, dose: 50.0 mg/kg/injection, schedule: Q01DX005 (ip), vehicle: distilled water + Tween-80 98 % of control | endpoint: mean survival time, dose: 100.0 mg/kg/injection, schedule: Q01DX005 (ip), vehicle: distilled water + Tween-80 100 % of control | endpoint: mean survival time, dose: 200.0 mg/kg/injection, schedule: Q01DX005 (ip), vehicle: distilled water + Tween-80 100 % of control

COc1cc(Cl)ccc1C
inactive: endpoint: mean survival time, dose: 12.5 mg/kg/injection, schedule: Q01DX009 (ip), vehicle: saline with Tween-80 97 % of control | [7] 97 % of control | [8] 95 % of control | [2] 100 % of control | [12] 91 % of control

N#Cc1nc2c(n(O)c1=N)CCC/C2=N\O
inactive: endpoint: mean survival time, dose: 100.0 mg/kg/injection, schedule: Q04DX003 (ip), vehicle: Klucel (hydroxypropylcellulose) (HPC) 98 % of control | endpoint: mean survival time, dose: 200.0 mg/kg/injection, schedule: Q04DX003 (ip), vehicle: Klucel (hydroxypropylcellulose) (HPC) 98 % of control | endpoint: mean survival time, dose: 400.0 mg/kg/injection, schedule: Q04DX003 (ip), vehicle: Klucel (hydroxypropylcellulose) (HPC) 91 % of control

O=c1[nH]c2ccccc2c2ccccc12
inactive: [2] 98 % of control | [12] 90 % of control | [13] 102 % of control

O=C1C(Br)CCC1C(O)(C(F)(F)F)C(F)(F)F (configuration not stated)
inactive: [8] 98 % of control | [2] 102 % of control | [4] 92 % of control | [12] 104 % of control | [5] 91 % of control

O=C(Nc1ccc(Cl)c(Cl)c1)c1cc(Cl)ccc1O
inactive: [2] 102 % of control | [12] 100 % of control | [13] 105 % of control

COB(C1CCCCC1)C1CCCCC1
inactive: endpoint: mean survival time, dose: 100.0 mg/kg/injection, schedule: Q01DX009 (ip), vehicle: other 91 % of control | endpoint: mean survival time, dose: 200.0 mg/kg/injection, schedule: Q01DX009 (ip), vehicle: other 88 % of control

ClC(Cl)=C(c1ccc(Cl)cc1)c1ccc(Cl)cc1
inactive: [2] 103 % of control | [12] 97 % of control | [13] 101 % of control

COc1ccc(/C=N/NC(=S)Nc2ccccn2)cc1OC
inactive: endpoint: mean survival time, dose: 25.0 mg/kg/injection, schedule: Q04DX002 (ip), vehicle: saline with Tween-80 92 % of control | endpoint: mean survival time, dose: 50.0 mg/kg/injection, schedule: Q04DX002 (ip), vehicle: saline with Tween-80 92 % of control | [9] 88 % of control and 95 % of control

COc1cc2c(c(OC)c1OC)-c1cc(I)c(O)cc1[C@@H](NC(C)=O)CC2
inactive: [2] 98 % of control

CC(C)N=C(N)c1ccc(NC(=O)c2ccc(C(=O)Nc3ccc(C(N)=NC(C)C)cc3)cc2)cc1
inactive: endpoint: mean survival time, dose: 6.25 mg/kg/injection, schedule: Q01DX Z (ip), vehicle: water 93 % of control

Oc1ccc(/C=N/NC(=S)Nc2ccccc2)nc1
inactive: [9] 106 % of control | [10] 106 % of control | [11] 95 % of control

CC(C)(c1ccccn1)C(C)(C)c1ccccn1
inactive: [8] 96 % of control | [2] 104 % of control | [12] 100 % of control

CN=C(c1ccccc1)C1(O)CC2CCC1C2 (configuration not stated)
inactive: endpoint: mean survival time, dose: 100.0 mg/kg/injection, schedule: Q01DX001 (ip), vehicle: saline 101 % of control | endpoint: mean survival time, dose: 200.0 mg/kg/injection, schedule: Q01DX001 (ip), vehicle: saline 98 % of control | endpoint: mean survival time, dose: 400.0 mg/kg/injection, schedule: Q01DX001 (ip), vehicle: saline 101 % of control

CCOC(=O)C1C(=O)CC(c2ccccc2)C(C#N)(c2ccccc2)C1(O)c1ccccc1 (configuration not stated)
inactive: [9] 90 % of control | [10] 90 % of control | [11] 90 % of control

Nc1cnc(/C=C/c2ccccc2)nc1
inactive: endpoint: mean survival time, dose: 75.0 mg/kg/injection, schedule: Q01DX001 (ip), vehicle: other 104 % of control | endpoint: mean survival time, dose: 150.0 mg/kg/injection, schedule: Q01DX001 (ip), vehicle: other 102 % of control

Cc1c(Cl)c(C)c(Cl)c(C)c1Cl
inactive: [4] 101 % of control | [5] 96 % of control | [6] 101 % of control

C[S+](C)CCC(N)C(=O)O (configuration not stated)
inactive: endpoint: median survival time, dose: 3.13 mg/kg/injection, schedule: Q04DX002 (ip), vehicle: saline 105 % of control | endpoint: median survival time, dose: 6.25 mg/kg/injection, schedule: Q04DX002 (ip), vehicle: saline 105 % of control | endpoint: median survival time, dose: 12.5 mg/kg/injection, schedule: Q04DX002 (ip), vehicle: saline 108 % of control | endpoint: median survival time, dose: 25.0 mg/kg/injection, schedule: Q04DX002 (ip), vehicle: saline 100 % of control | endpoint: median survival time, dose: 50.0 mg/kg/injection, schedule: Q04DX002 (ip), vehicle: saline 117 % of control
